Data reported in US9422309B2, “3-O-heteroaryl-ingenol” (LEO LABORATORIES LIMITED, priority 2012, dated 2016).

Legend:
Format in all cases: cell-based
HeLa cells = assay: Necrosis assay; settings: Homo sapiens, 0.5 h, 30 min at 37° C., PrestoBlue, normalised to 4 10^−4 M PEP0005/ingenol mebutate, read-out: HeLa necrosis EC50 range
Method: HeLa cells (ATCC CCL-002) were grown in minimal essential medium (Invitrogen catalog no. 42360) containing 10% fetal bovine serum, 100 IU/ml penicillin and 100 μg/ml streptomycin. 4,000-6,000 cells were seeded into 96-well black ViewPlates-plates, clear bottom, (Perkin Elmer) in 100 μl medium and incubated overnight. Compounds were dissolved and pre-diluted in DMSO in 96-well polypropylene plates (Greiner) in a concentration range of 15 μM to 600 μM. At the time of the experiment cell plates were placed on heating blocks at 37° C., medium was removed and 40 μl fresh, pre-warmed medium was added per well. Cells were incubated for 15 min before addition of compounds. In parallel, 3 μl of compounds were diluted with 197 μl growth medium on a Tecan freedom-EVO pipetting station using 250 μl/s pipetting speed, in order to ensure effective mixing of the highly concentrated compound solutions with the aqueous phase.
These pre-dilution plates were then equilibrated on heating blocks at 37° C. for 10 min. 80 μl pre-diluted compound were transferred manually to the corresponding wells containing HeLa cells yielding compound concentrations of 10 μM to 400 μM. Control conditions were 1% DMSO in growth medium (100% viability) and 400 μM ingenol mebutate in growth medium (0% viability). Plates were incubated on the heating blocks at 37° C. for 30 min. At the end of the incubation 10 μl PrestoBlue reagent (Invitrogen) were added to each well, plates were sealed with black seal, followed by incubation at 37° C. for 10 min with gentle shaking (150 rpm). Subsequently, plates were placed at room temperature for 20-30 min. Plates were read immediately after on an Envision Fluorescence reader (Perkin Elmer) with excitation at 535 nm and emission at 630 nm. Test compound titration curves were fitted to a four-parameter sigmoidal curve after normalizing the effect of the test compound to the effect of the positive control (4 10^−4 M PEP0005/ingenol mebutate). Abs EC50 denotes the concentration of test compound producing 50% effect.

[1] = test system: PMN's (polymorphonuclear leukocytes); assay: Neutrophil oxidative burst; settings: Leukocyte, 40 min; 40 min incubation at rt; normalised to 5×10^−7 M PEP0005; read-out: Neutrophil oxidative burst Rel EC50 range
Method: PMN's (polymorphonuclear leukocytes) are isolated and purified from fresh buffy coats by sequential sedimentation, density centrifugation and lysis of contaminating erythrocytes. In brief, buffy coats are incubated with 2% methocel for 30-45 min to differentially sediment red blood cells. The leukocyte-rich supernatant is transferred to lymphoprep tubes to remove mononuclear cells by density centrifugation (400×g, 30 min). The pellet is resuspended and any remaining erythrocytes lysed using 0.2% NaCl for 30 sec before restoring isotonicity by the addition of 1.2% NaCl. This step is repeated until the cell pellet appears relatively free of red blood cells. Cells are resuspended in DPBS (Dulbecco's Phosphate Buffered Saline) (w.o. Ca^2+, Mg^2+) and the concentration adjusted to 1.4×10^6 cells/ml in HBSS (Hanks Balanced Salt solution) (w Ca^2+, Mg^2+) containing 0.1% BSA (Bovine Serum Albumin) and 5 mM glucose just prior to assay initiation. Titrated reference and test compounds are pre-mixed with HE (Hydroethidine) (10 μM final assay concentration) before addition to 96-well plates containing 2.5×10^5 cells. Following 40 min incubation at rt, changes in the respiratory burst is estimated by measuring fluorescence at 579 nm (excitation: 485 nm) using an Envision plate reader.
Test compound titration curves are fitted to a four-parameter sigmoidal curve after normalizing the effect of the test compound to the effect of the positive control (5×10^−7 M PEP0005). Rel EC50 denotes the concentration of test compound producing an effect that is midway between the fitted top and bottom. Abs EC50 is the concentration of test compound that provokes a response corresponding to 50% of the maximal effect associated with the positive control (5×10^−7 M PEP0005).

[2] = test system: Primary human epidermal keratinocytes, HeKa; assay: HeKa cytokine release (IL-8); settings: 6 h at 37° C., normalised to 1.5×10^−7 M PEP0005, read-out: HeKa cytokine release (IL-8) Rel EC50 range
Method: Primary human epidermal keratinocytes, HeKa, are seeded (10.000 cells/well) in 96-well plates the day before the assay. Test compounds are diluted in DMSO (dimethyl sulfoxide) and further diluted in assay medium and pipetted into wells of 96 well-plates containing HeKa cells. The plates are incubated for 6 h at 37° C. in humidified air with 5% CO2. Plates are centrifuged briefly to spin down cells at 4° C., the supernatant is removed and analysed by Meso Scale Discovery (MSD) 4-spot cytokine assay (Pro-inflammatory II Ultra Sensitive kit, MSD, MD, USA). The MSD assay employs a sandwich immunoassay format where capture antibodies are coated in a patterned array on the bottom of the wells of a 4-Spot-Multi-MSD plate. Standard samples are incubated in the MULTI-SPOT plates as well, and the cytokine (IL-8) binds to its corresponding capture antibody spot. The cytokine level is quantitated on a SECTOR™ Imager using a cytokine-specific Detection Antibody labelled with MSD SULFO-TAG™ reagent.
Test compound titration curves are fitted to a four-parameter sigmoidal curve after normalizing the effect of the test compound to the effect of the positive control (1.5×10^−7 M PEP0005). Rel EC50 denotes the concentration of test compound producing an effect that is midway between the fitted top and bottom.

SMILES: C=CCn1ccnc1O[C@H]1C(C)=C[C@]23C(=O)[C@@H](C=C(CO)[C@@H](O)[C@]12O)[C@H]1[C@@H](C[C@H]3C)C1(C)C [Compound 109, 3-O-(1-Allylimidazol-2-yl)-ingenol]
- EC50 (HeLa cells): ≥ 350000 nM
- EC50 [1]: 20 to 100 nM

SMILES: CC1=C[C@]23C(=O)[C@@H](C=C(CO)[C@@H](O)[C@]2(O)[C@H]1Oc1ncccc1F)[C@H]1[C@@H](C[C@H]3C)C1(C)C [Compound 112, 3-O-(3-Fluoro-2-pyridyl)-ingenol]
- EC50 [2]: ≥ 100 nM
- EC50 (HeLa cells): ≥ 350000 nM
- EC50 [1]: 20 to 100 nM

SMILES: CC1=C[C@]23C(=O)[C@@H](C=C(CO)[C@@H](O)[C@]2(O)[C@H]1Oc1ncnc(Cl)c1C)[C@H]1[C@@H](C[C@H]3C)C1(C)C [Compound 101, 3-O-(6-Chloro-5-methyl-pyrimidin-4-yl)-ingenol]
- EC50 [2]: < 20 nM
- EC50 (HeLa cells): < 150000 nM
- EC50 [1]: 20 to 100 nM

SMILES: CC1=C[C@]23C(=O)[C@@H](C=C(CO)[C@@H](O)[C@]2(O)[C@H]1Oc1nccc2sccc12)[C@H]1[C@@H](C[C@H]3C)C1(C)C [Compound 127, 3-O-(Thieno[3,2-c]pyridine-4-yl)-ingenol]
- EC50 [2]: 20 to 100 nM
- EC50 (HeLa cells): 150000 to 350000 nM
- EC50 [1]: 20 to 100 nM

SMILES: CC1=C[C@]23C(=O)[C@@H](C=C(CO)[C@@H](O)[C@]2(O)[C@H]1Oc1nccc2ccsc12)[C@H]1[C@@H](C[C@H]3C)C1(C)C [Compound 123, 3-O-(Thieno[2,3-c]pyridine-7-yl)-ingenol]
- EC50 [2]: < 20 nM
- EC50 (HeLa cells): ≥ 350000 nM
- EC50 [1]: 20 to 100 nM

SMILES: CC1=C[C@]23C(=O)[C@@H](C=C(CO)[C@@H](O)[C@]2(O)[C@H]1Oc1nccc(C(F)(F)F)n1)[C@H]1[C@@H](C[C@H]3C)C1(C)C [Compound 114, 3-O-(4-(Trifluoromethyl)-pyrimidin-2-yl)-ingenol]
- EC50 [2]: ≥ 100 nM
- EC50 (HeLa cells): ≥ 350000 nM
- EC50 [1]: ≥ 100 nM

SMILES: CC1=C[C@]23C(=O)[C@@H](C=C(CO)[C@@H](O)[C@]2(O)[C@H]1Oc1cc(C(F)(F)F)ccn1)[C@H]1[C@@H](C[C@H]3C)C1(C)C [Compound 113, 3-O-(4-(Trifluoromethyl)-2-pyridyl)-ingenol]
- EC50 [2]: 20 to 100 nM
- EC50 (HeLa cells): 150000 to 350000 nM
- EC50 [1]: 20 to 100 nM

SMILES: CC1=C[C@]23C(=O)[C@@H](C=C(CO)[C@@H](O)[C@]2(O)[C@H]1Oc1nccc2occc12)[C@H]1[C@@H](C[C@H]3C)C1(C)C [Compound 126, 3-O-(Furo[3,2-c]pyridine-4-yl)-ingenol]
- EC50 (HeLa cells): 150000 to 350000 nM
- EC50 [1]: 20 to 100 nM

SMILES: CC1=C[C@]23C(=O)[C@@H](C=C(CO)[C@@H](O)[C@]2(O)[C@H]1Oc1noc2ccc(Cl)cc12)[C@H]1[C@@H](C[C@H]3C)C1(C)C [Compound 131, 3-O-(5-Chloro-1,2-benzoxazol-3-yl)-ingenol]
- EC50 [2]: < 20 nM
- EC50 (HeLa cells): < 150000 nM
- EC50 [1]: < 20 nM

SMILES: CC1=C[C@]23C(=O)[C@@H](C=C(CO)[C@@H](O)[C@]2(O)[C@H]1Oc1noc2cccc(F)c12)[C@H]1[C@@H](C[C@H]3C)C1(C)C [Compound 128, 3-O-(4-Fluoro-1,2-benzoxazol-3-yl)-ingenol]
- EC50 [2]: < 20 nM
- EC50 (HeLa cells): 150000 to 350000 nM
- EC50 [1]: < 20 nM

SMILES: COc1cccnc1O[C@H]1C(C)=C[C@]23C(=O)[C@@H](C=C(CO)[C@@H](O)[C@]12O)[C@H]1[C@@H](C[C@H]3C)C1(C)C [Compound 129, 3-O-(3-Methoxy-pyridin-2-yl)-ingenol]
- EC50 [2]: ≥ 100 nM
- EC50 (HeLa cells): ≥ 350000 nM
- EC50 [1]: ≥ 100 nM

SMILES: CC1=C[C@]23C(=O)[C@@H](C=C(CO)[C@@H](O)[C@]2(O)[C@H]1Oc1nccn1CC(F)F)[C@H]1[C@@H](C[C@H]3C)C1(C)C [Compound 121, 3-O-(1-(2,2-Difluoroethyl)imidazol-2-yl)-ingenol]
- EC50 [2]: ≥ 100 nM
- EC50 [1]: 20 to 100 nM

SMILES: COc1ccc2c(O[C@H]3C(C)=C[C@]45C(=O)[C@@H](C=C(CO)[C@@H](O)[C@]34O)[C@H]3[C@@H](C[C@H]5C)C3(C)C)noc2c1 [Compound 132, 3-O-(6-Methoxy-1,2-benzoxazol-3-yl)-ingenol]
- EC50 [2]: < 20 nM
- EC50 (HeLa cells): ≥ 350000 nM
- EC50 [1]: < 20 nM

SMILES: CC1=C[C@]23C(=O)[C@@H](C=C(CO)[C@@H](O)[C@]2(O)[C@H]1Oc1cccc(C(F)(F)F)n1)[C@H]1[C@@H](C[C@H]3C)C1(C)C [Compound 117, 3-O-(6-(Trifluoromethyl)-2-pyridyl)-ingenol]
- EC50 [2]: ≥ 100 nM
- EC50 (HeLa cells): ≥ 350000 nM
- EC50 [1]: ≥ 100 nM

SMILES: CC1=C[C@]23C(=O)[C@@H](C=C(CO)[C@@H](O)[C@]2(O)[C@H]1Oc1ncc(C(F)(F)F)cn1)[C@H]1[C@@H](C[C@H]3C)C1(C)C [Compound 110, 3-O-(5-(Trifluoromethyl)-pyrimidin-2-yl)-ingenol]
- EC50 [2]: ≥ 100 nM
- EC50 (HeLa cells): ≥ 350000 nM
- EC50 [1]: ≥ 100 nM

SMILES: CC1=C[C@]23C(=O)[C@@H](C=C(CO)[C@@H](O)[C@]2(O)[C@H]1Oc1noc(C(C)C)n1)[C@H]1[C@@H](C[C@H]3C)C1(C)C [Compound 133, 3-O-(5-Isopropyl-1,2,4-oxadiazol-3-yl)-ingenol]
- EC50 [2]: 20 to 100 nM
- EC50 (HeLa cells): ≥ 350000 nM
- EC50 [1]: 20 to 100 nM

SMILES: CC1=C[C@]23C(=O)[C@@H](C=C(CO)[C@@H](O)[C@]2(O)[C@H]1Oc1ncccc1C#N)[C@H]1[C@@H](C[C@H]3C)C1(C)C [Compound 116, 3-O-(3-Cyano-2-pyridyl)-ingenol]
- EC50 [2]: ≥ 100 nM
- EC50 (HeLa cells): ≥ 350000 nM
- EC50 [1]: 20 to 100 nM

SMILES: CC1=C[C@]23C(=O)[C@@H](C=C(CO)[C@@H](O)[C@]2(O)[C@H]1Oc1nccn1CCF)[C@H]1[C@@H](C[C@H]3C)C1(C)C [Compound 122, 3-O-(1-(2-Fluoroethyl)imidazol-2-yl)-ingenol]
- EC50 [2]: ≥ 100 nM
- EC50 [1]: ≥ 100 nM

SMILES: CC1=C[C@]23C(=O)[C@@H](C=C(CO)[C@@H](O)[C@]2(O)[C@H]1Oc1noc2ccccc12)[C@H]1[C@@H](C[C@H]3C)C1(C)C [Compound 102, 3-O-(1,2-Benzoxazol-3-yl)-ingenol]
- EC50 [2]: < 20 nM
- EC50 (HeLa cells): 150000 to 350000 nM
- EC50 [1]: < 20 nM

SMILES: CC1=C[C@]23C(=O)[C@@H](C=C(CO)[C@@H](O)[C@]2(O)[C@H]1Oc1ccc(C(F)(F)F)cn1)[C@H]1[C@@H](C[C@H]3C)C1(C)C [Compound 103, 3-O-(5-(Trifluoromethyl)-2-pyridyl)-ingenol]
- EC50 [2]: 20 to 100 nM
- EC50 (HeLa cells): 150000 to 350000 nM
